Test in all cases: NCI anticancer screen, dose series, 48 h
For test [1], the system named is K562.
The test system of test [2] is CCRF-CEM.
For test [3], the system named is A498.
Test [4] has as its system UO-31.
Test [5] deals with SW-620.
Test [6] concerns OVCAR-4.
The test system of test [7] is SF-268.
Test [8] has as its system NCI-H460.
Test [9] concerns ACHN.
Test [10] concerns UACC-62.
The subject of test [11] is SF-295.
In test [12] the test system is NCI-H522.
Test [13] deals with SK-OV-3.
Test [14] deals with COLO 205.
Test [15] deals with LOX IMVI.
Test [16] concerns MCF7.
The subject of test [17] is NCI/ADR-RES.
Test [18] relates to Hs-578T.

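96-well plates; 48 h exposure; 5 concentrations. Endpoints by linear interpolation between flanking doses. Not reached: highest tested concentration assigned. GI50 is the concentration that inhibits growth by half.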 Calls of active or inactive are those of the source. Cut-off read from the data, not from the text of the source: active = GI50 up to about 1.1 µM and inactive = higher. A value given as a limit tells only on which side of the number the result lay.

For `O=c1c(-c2ccccc2)c(O)nc2[nH]c3ccccc3n12`, the GI50 in test [1], in test [2], in test [3], in test [4], in test [5] and in [6] was > 100 µM (inactive) throughout. Moreover, the GI50 in test [7], in test [8], in [9], in [10], in test [11] and in test [12] was > 100 µM (inactive) in each case. The GI50 in test [13], in test [14] and in test [15] was > 100 µM (inactive) each time.
On to `COc1cc2c(cc1OC)C(C(=O)c1cccc(OC)c1OC)C(=O)N(C)CC2` (stereo unspecified), for which the GI50 in test [1], in test [2], in [3], in test [4], in test [5] and in [6] was > 100 µM (inactive) each time. Besides, the GI50 in [7], in test [8], in [9], in [10], in [12] and in test [13] was > 100 µM (inactive) in each case. The GI50 in [14] and in test [15] was > 100 µM (inactive) in each case.
Turning to `Fc1cccc2cc3ccc4cccc5ccc(c12)c3c45`, the GI50 in test [1], in test [2], in test [3], in test [4], in test [5] and in test [6] was > 100 µM (inactive) in each case. Besides, the GI50 in test [7] is > 100 µM (inactive); in test [9] it was > 100 µM (inactive); in [10], > 100 µM (inactive); in [11], > 100 µM (inactive); in [12], > 100 µM (inactive); in test [13], 0.771 µM (active). For the same molecule, the GI50 in [14] and in [15] was > 100 µM (inactive) each time.
Take `COc1ccc(N[S+]([O-])c2cccc(C)c2)cc1` (stereo unspecified): the GI50 in test [1] is 9.73 µM (inactive); in test [2], 48 µM (inactive); in test [16] it was 75.5 µM (inactive); in [4] it was 20.4 µM (inactive); in test [5], 57.5 µM (inactive); in test [7], 30.5 µM (inactive). Also, the GI50 in test [8] is 30 µM (inactive); in test [9], 7.76 µM (inactive); in [11], > 100 µM (inactive); in [12], 8.59 µM (inactive); in test [17] it was 14 µM (inactive); in test [14] it was 59.6 µM (inactive). The GI50 in [15] is 17.3 µM (inactive); in test [18], 87.9 µM (inactive).
In the case of `COc1ccc(OCC(=O)O)c2c1CCCC2=O`, the GI50 in test [1], in test [2], in test [3], in test [4], in test [5] and in test [6] was > 100 µM (inactive) in each case. In addition, the GI50 in test [7] was > 100 µM (inactive); in test [8], > 100 µM (inactive); in [9], > 100 µM (inactive); in test [10], 81.3 µM (inactive); in test [11], > 100 µM (inactive); in test [12], > 100 µM (inactive). The GI50 in test [13], in test [14] and in [15] was > 100 µM (inactive) in each case.
On to `COC(=O)C12C3C4C5C3(C#N)C1C5(C(=O)OC)C42C(=O)N(C(C)C)C(C)C` (stereo unspecified), for which the GI50 was > 49.4 µM (inactive) in [1]; > 46 µM (inactive) in [2]; > 100 µM (inactive) in test [3]; > 100 µM (inactive) in test [4]; > 26.7 µM (inactive) in test [5]; > 100 µM (inactive) in [6]. The GI50 in test [7] is > 100 µM (inactive); in [8] it was > 57.5 µM (inactive); in [9], > 100 µM (inactive); in test [10], > 100 µM (inactive); in test [11] it was > 100 µM (inactive); in [12] it was > 33.4 µM (inactive). For the same molecule, the GI50 in [13] is > 100 µM (inactive); in test [14], > 60.4 µM (inactive); in [15] it was 58.1 µM (inactive).
Consider `CSc1nc(NC2OC(COC(C)=O)C(OC(C)=O)C(OC(C)=O)C2OC(C)=O)c(-c2csc(N)n2)c(=O)n1C` (stereo unspecified), for which the GI50 in test [1] is > 100 µM (inactive); in test [2], > 100 µM (inactive); in [3] it was > 100 µM (inactive); in test [4], 24.6 µM (inactive); in [5], > 100 µM (inactive); in test [6] it was 21.8 µM (inactive). Further, the GI50 in test [7] is 22.5 µM (inactive); in test [8] it was 39.1 µM (inactive); in [9], 31.5 µM (inactive); in test [10], 26.1 µM (inactive); in [11], 33.6 µM (inactive); in test [12] it was 56.2 µM (inactive). The GI50 is 50.7 µM (inactive) in [13], > 100 µM (inactive) in [14] and 93.3 µM (inactive) in test [15].
As for `CN(C)C(=S)/N=c1\ss/c(=N\C(=S)N(C)C)n1-c1ccc(Cl)c(Cl)c1`, the GI50 in test [1], in test [2], in [3], in test [4], in [5] and in test [6] was > 100 µM (inactive) throughout. Also, the GI50 was > 100 µM (inactive) in test [7]; > 100 µM (inactive) in test [8]; > 100 µM (inactive) in [9]; 30.9 µM (inactive) in [10]; > 100 µM (inactive) in test [11]; > 100 µM (inactive) in [12]. Also, the GI50 in test [13], in test [14] and in test [15] was > 100 µM (inactive) throughout.
In the case of `COC(=O)C(=O)C(C#N)c1cccc2ccccc12` (stereo unspecified), the GI50 in test [1], in [2], in [3], in test [4], in [5] and in [6] was > 100 µM (inactive) throughout. The GI50 in test [7], in [9], in test [10], in test [11], in test [12] and in test [13] was > 100 µM (inactive) in each case. The GI50 in test [14] and in [15] was > 100 µM (inactive) throughout.
`CC(=O)NC(Cc1ccccc1)C(=S)N1CCCC1` (stereo unspecified): the GI50 in test [1], in test [2], in test [3], in [4], in test [5] and in test [6] was > 100 µM (inactive) throughout. Moreover, the GI50 in test [7], in test [8], in test [9], in [10], in test [11] and in [12] was > 100 µM (inactive) in each case. Also, the GI50 in [13], in [14] and in test [15] was > 100 µM (inactive) in each case.
On to `CCN(CC)CCNc1ccc2nnn3c4ccccc4c(=O)c1c23`, for which the GI50 in [1] is 2.97 µM (inactive); in test [2], 2.86 µM (inactive); in test [3], 11.4 µM (inactive); in [4], 4.46 µM (inactive); in test [5], 1.43 µM (inactive); in test [6], 3.51 µM (inactive). Further, the GI50 in [7] is 4.83 µM (inactive); in test [8] it was 2.25 µM (inactive); in test [9] it was 3.24 µM (inactive); in test [10] it was 5.73 µM (inactive); in [11], 4.29 µM (inactive); in test [12], 4.75 µM (inactive). In addition, the GI50 was 17.4 µM (inactive) in test [13], 3.55 µM (inactive) in test [14] and 2.86 µM (inactive) in [15].
Regarding `Cc1c2ccncc2c(C)c2c1[nH]c1ccc(Cl)cc12`, the GI50 in [1] was 1.62 µM (inactive); in test [2], 1.36 µM (inactive); in [3] it was 4.46 µM (inactive); in test [16], 2.17 µM (inactive); in [4] it was 3.56 µM (inactive); in [5], 1.52 µM (inactive). The GI50 in [6] was 2.11 µM (inactive); in test [8] it was 1.54 µM (inactive); in [9], 1.26 µM (inactive); in test [10], 3.37 µM (inactive); in [12], 2.36 µM (inactive); in test [17], 1.22 µM (inactive). Besides, the results for the GI50 in test [13], in test [14] and in test [15] were 7.19 µM (inactive), 2.16 µM (inactive) and 1.55 µM (inactive), respectively.
With `COc1ccc(C2CC(=O)c3c(O)cc(O)cc3O2)cc1O` (stereo unspecified), the GI50 in test [1] was 28.8 µM (inactive); in [2], > 100 µM (inactive); in test [3] it was > 100 µM (inactive); in [4] it was 58.7 µM (inactive); in test [5], > 100 µM (inactive); in [6] it was 65.2 µM (inactive). The GI50 in [7], in test [8], in [9], in [10], in test [11] and in test [12] was > 100 µM (inactive) in each case. Further, the GI50 in [13], in [14] and in test [15] was > 100 µM (inactive) in each case.

The record behind these values is ChEMBL document CHEMBL1201862, “PubChem BioAssay data set” (2004).
